# From ChEMBL document CHEMBL1158166, “DNA binding and biological studies of some novel water-soluble polymer-copper(II)-phenanthroline complexes” (2008)
# How the values were obtained:
# Settings in all cases: read-out: IZ
# Staphylococcus aureus = experiment: Antibacterial activity against Staphylococcus aureus at 1 ug/disc after 24 to 48 hrs
# Bacillus subtilis = experiment: Antibacterial activity against Bacillus subtilis at 1 ug/disc after 24 to 48 hrs
# Escherichia coli = experiment: Antibacterial activity against Escherichia coli at 1 ug/disc after 24 to 48 hrs
# Pseudomonas aeruginosa = experiment: Antibacterial activity against Pseudomonas aeruginosa at 1 ug/disc after 24 to 48 hrs
# Candida albicans = experiment: Antifungal activity against Candida albicans at 10 ug/disc after 24 to 48 hrs; assay type: functional
Compound,zone of inhibition at 1 µg/disc (Staphylococcus aureus),zone of inhibition at 1 µg/disc (Bacillus subtilis),zone of inhibition at 1 µg/disc (Escherichia coli),zone of inhibition at 1 µg/disc (Pseudomonas aeruginosa),zone of inhibition at 10 µg/disc (Candida albicans)
O=C(O)c1cn(C2CC2)c2cc(N3CCNCC3)c(F)cc2c1=O [CIPROFLOXACIN],16 mm,17 mm,16 mm,17 mm,–
Clc1ccccc1C(c1ccccc1)(c1ccccc1)n1ccnc1 [CLOTRIMAZOLE],–,–,–,–,12 mm
